In ChEMBL document CHEMBL3872201, “Synthesis and antiproliferative activity of a natural like glycoconjugate polycyclic compound” (2016):
Active and inactive are the calls of the source. The rule behind the calls is not given here.

Legend:
[1] = Antiproliferative activity against human NCI-H226 cells after 48 hrs by sulforhodamine B assay; assay type: functional; conditions: NCI-H226, 48 h
[2] = Cell cycle arrest in human MDA-MB-231 cells assessed as accumulation at subG0/G1 phase at 10 uM after 24 hrs by propidium iodide staining based flow cytometric analysis (reference value: 7.6%); assay type: functional
[3] = Cell cycle arrest in human MDA-MB-231 cells assessed as cell flattening at 5 to 10 uM after 8 days by light microscopic analysis; assay type: functional, cell-based
[4] = Cell cycle arrest in human MDA-MB-231 cells assessed as accumulation at G0/G1 phase at 10 uM after 72 hrs by propidium iodide staining based flow cytometric analysis (reference value: 69.3%); assay type: functional
[5] = Cell cycle arrest in human MDA-MB-231 cells assessed as accumulation at G0/G1 phase at 10 uM after 48 hrs by propidium iodide staining based flow cytometric analysis (reference value: 67%); assay type: functional
[6] = Cell cycle arrest in human MDA-MB-231 cells assessed as accumulation at subG0/G1 phase at 5 uM after 72 hrs by propidium iodide staining based flow cytometric analysis (reference value: 6.3%); assay type: functional
[7] = Cytotoxicity against human MDA-MB-231 cells assessed as inhibition of cell viability at 5 uM after 24 hrs by MTT assay relative to control; assay type: functional; conditions: MDA-MB-231, 24 h
MDA-MB-231 [8] = assay: Effect on cell cycle regulatory protein in human MDA-MB-231 cells assessed as cdc2 level at 10 uM after 48 hrs by Western blot analysis relative to control; assay type: functional
[9] = Antiproliferative activity against human NCI-H23 cells after 48 hrs by sulforhodamine B assay; assay type: functional; conditions: NCI-H23, 48 h
[10] = Antiproliferative activity against human RXF393 cells after 48 hrs by sulforhodamine B assay; assay type: functional; conditions: RXF 393, 48 h
[11] = Antiproliferative activity against human SK-MEL-28 cells after 48 hrs by sulforhodamine B assay; assay type: functional; conditions: SK-MEL-28, 48 h
[12] = Antiproliferative activity against human HOP92 cells after 48 hrs by sulforhodamine B assay; assay type: functional; conditions: HOP-92, 48 h
[13] = Antiproliferative activity against human 786-0 cells after 48 hrs by sulforhodamine B assay; assay type: functional; conditions: 786-0, 48 h
[14] = Cell cycle arrest in human MDA-MB-231 cells assessed as accumulation at G0/G1 phase at 5 uM after 24 hrs by propidium iodide staining based flow cytometric analysis (reference value: 66.5%); assay type: functional
[15] = Antiproliferative activity against human PC3 cells after 48 hrs by sulforhodamine B assay; assay type: functional; conditions: PC-3, 48 h
[16] = Antiproliferative activity against human SF539 cells after 48 hrs by sulforhodamine B assay; assay type: functional; conditions: SF-539, 48 h
[17] = Antiproliferative activity against human MCF7 cells after 48 hrs by sulforhodamine B assay; assay type: functional; conditions: MCF7, 48 h
[18] = Antiproliferative activity against human UACC62 cells after 48 hrs by sulforhodamine B assay; assay type: functional; conditions: UACC-62, 48 h
[19] = Antiproliferative activity against human T47D cells after 48 hrs by sulforhodamine B assay; assay type: functional
MDA-MB-231 [20] = assay: Effect on cell cycle regulatory protein in human MDA-MB-231 cells assessed as cyclin B1 level at 10 uM after 24 hrs by Western blot analysis relative to control; assay type: functional
[21] = Antiproliferative activity against human MDA-MB-231 cells after 48 hrs by sulforhodamine B assay; assay type: functional; conditions: MDA-MB-231, 48 h
MDA-MB-231 [22] = assay: Effect on cell cycle regulatory protein in human MDA-MB-231 cells assessed as p21 level at 10 uM after 24 hrs by Western blot analysis relative to control; assay type: functional
[23] = Antiproliferative activity against human OVCAR5 cells after 48 hrs by sulforhodamine B assay; assay type: functional; conditions: OVCAR-5, 48 h
[24] = Antiproliferative activity against human UO31 cells after 48 hrs by sulforhodamine B assay; assay type: functional; conditions: UO-31, 48 h
[25] = Antiproliferative activity against human NCI-H460 cells after 48 hrs by sulforhodamine B assay; assay type: functional; conditions: NCI-H460, 48 h
[26] = Antiproliferative activity against human SK-MEL-5 cells after 48 hrs by sulforhodamine B assay; assay type: functional; conditions: SK-MEL-5, 48 h
[27] = read-out: LC50 (the source's name)

**Q.** With `C=C1c2c(C)nn(-c3ccc(C#CCO[C@@H]4O[C@H](CO)[C@@H](O)[C@H](O)[C@H]4O)cc3)c2N(C)C23CC1C1(C)c4c(C)nn(-c5ccc(C#CCO[C@@H]6O[C@H](CO)[C@@H](O)[C@H](O)[C@H]6O)cc5)c4N(C)C(C)(CC12)C3` (stereo partly drawn) as the compound, how does the GI50 [1] read?
**A.** Its GI50 is 1.62 µM.

**Q.** What about the TGI [1] of the same compound?
**A.** Its TGI is 3.7 µM.

**Q.** And the CC50 [1, 27]?
**A.** The CC50 was 8.46 µM.

**Q.** And the Activity [2]?
**A.** The Activity was 2.2%.

**Q.** What about the Activity [3] of the same compound?
**A.** Its Activity is “Active”.

**Q.** What about the Activity [4] of the same compound?
**A.** The Activity was 61.8%.

**Q.** What about the Activity [5] of the same compound?
**A.** The Activity was 61.3%.

**Q.** What about the Activity [6] of the same compound?
**A.** The Activity was 4%.

**Q.** And the inhibition at 5 µM [7]?
**A.** Its inhibition at 5 µM is 65%.

**Q.** What about the “fold change (FC)” value (MDA-MB-231 [8]) of the same compound?
**A.** Its value is 0.3.

**Q.** What about the GI50 [9] of the same compound?
**A.** Its GI50 is 2.33 µM.

**Q.** And the TGI [9]?
**A.** The TGI was 6.59 µM.

**Q.** What about the CC50 [9, 27] of the same compound?
**A.** The CC50 was 100 µM.

**Q.** What about the GI50 [10] of the same compound?
**A.** The GI50 was 1.62 µM.

**Q.** And the TGI [10]?
**A.** Its TGI is 3.52 µM.

**Q.** And the CC50 [10, 27]?
**A.** Its CC50 is 7.63 µM.

**Q.** What about the GI50 [11] of the same compound?
**A.** The GI50 was 1.9 µM.

**Q.** What about the TGI [11] of the same compound?
**A.** The TGI was 3.52 µM.

**Q.** What about the CC50 [11, 27] of the same compound?
**A.** The CC50 was 6.5 µM.

**Q.** What about the GI50 [12] of the same compound?
**A.** Its GI50 is 0.43 µM.

**Q.** What about the TGI [12] of the same compound?
**A.** The TGI was 2.52 µM.

**Q.** What about the CC50 [12, 27] of the same compound?
**A.** Its CC50 is 8.63 µM.

**Q.** And the GI50 [13]?
**A.** The GI50 was 2.66 µM.

**Q.** And the TGI [13]?
**A.** The TGI was 7.78 µM.

**Q.** And the CC50 [13, 27]?
**A.** Its CC50 is 29.6 µM.

**Q.** What about the Activity [14] of the same compound?
**A.** Its Activity is 56.9%.

**Q.** And the GI50 [15]?
**A.** Its GI50 is 0.7 µM.

**Q.** What about the TGI [15] of the same compound?
**A.** Its TGI is 2.56 µM.

**Q.** And the CC50 [15, 27]?
**A.** The CC50 was 7.79 µM.

**Q.** What about the GI50 [16] of the same compound?
**A.** Its GI50 is 1.78 µM.

**Q.** And the TGI [16]?
**A.** Its TGI is 3.33 µM.

**Q.** And the CC50 [16, 27]?
**A.** The CC50 was 6.22 µM.

**Q.** What about the GI50 [17] of the same compound?
**A.** The GI50 was 1.38 µM.

**Q.** What about the TGI [17] of the same compound?
**A.** Its TGI is 3.2 µM.

**Q.** What about the CC50 [17, 27] of the same compound?
**A.** Its CC50 is 7.42 µM.

**Q.** What about the GI50 [18] of the same compound?
**A.** The GI50 was 1.22 µM.

**Q.** What about the TGI [18] of the same compound?
**A.** The TGI was 2.86 µM.

**Q.** And the CC50 [18, 27]?
**A.** The CC50 was 6.71 µM.

**Q.** What about the GI50 [19] of the same compound?
**A.** The GI50 was 0.68 µM.

**Q.** What about the TGI [19] of the same compound?
**A.** The TGI was 6.8 µM.

**Q.** And the CC50 [19, 27]?
**A.** Its CC50 is 100 µM.

**Q.** And the “fold change (FC)” value (MDA-MB-231 [20])?
**A.** The value was 0.7.

**Q.** What about the GI50 [21] of the same compound?
**A.** The GI50 was 1.5 µM.

**Q.** And the TGI [21]?
**A.** Its TGI is 3.06 µM.

**Q.** What about the CC50 [21, 27] of the same compound?
**A.** Its CC50 is 6.23 µM.

**Q.** And the “fold change (FC)” value (MDA-MB-231 [22])?
**A.** Its value is 1.

**Q.** What about the GI50 [23] of the same compound?
**A.** The GI50 was 1.78 µM.

**Q.** And the TGI [23]?
**A.** Its TGI is 3.54 µM.

**Q.** What about the CC50 [23, 27] of the same compound?
**A.** The CC50 was 7.05 µM.

**Q.** What about the GI50 [24] of the same compound?
**A.** The GI50 was 2.83 µM.

**Q.** And the TGI [24]?
**A.** Its TGI is 10.1 µM.

**Q.** And the CC50 [24, 27]?
**A.** Its CC50 is 31.8 µM.

**Q.** What about the GI50 [25] of the same compound?
**A.** Its GI50 is 1.69 µM.

**Q.** What about the TGI [25] of the same compound?
**A.** Its TGI is 3.85 µM.

**Q.** And the CC50 [25, 27]?
**A.** Its CC50 is 8.77 µM.

**Q.** What about the GI50 [26] of the same compound?
**A.** Its GI50 is 1.38 µM.

**Q.** And the TGI [26]?
**A.** Its TGI is 2.71 µM.

**Q.** What about the CC50 [26, 27] of the same compound?
**A.** Its CC50 is 5.31 µM.
